We go through two molecules from US12251427B2, “Reduced oxygen carriers and their use for the treatment of carboxyhemoglobinemia” (priority 2016, dated 2025).

Series [1] can be described thus: LD50 dose in mice (calculated). The following applies: mice of approximately 25 g.
For series [2] the following is noted: rats; cited from earlier work.
The conditions of series [3]: cited from earlier work.
Series [4] is described as follows: rNgb found in urinary bladder after infusion. The series is classed as in vivo. Conditions: after 60 minutes, mice sacrificed. The procedure:
(§1) It was previously shown that exposure of mice to air with 1500 ppm CO gas for an average of 50 minutes caused HbCO levels to increase to 64%+/−1% (PCT Publication No. WO 2014/150413). Prior to exposure, mice were surgically instrumented with placement of femoral artery and vein catheters for blood pressure monitoring, blood sampling and infusions of either recombinant neuroglobin (rNgb), another type of CO scavenging globin protein, or PBS as a control. Mice were infused with 250 μL of 8-12 mM rNgb or PBS within 4 minutes using a Harvard infusion pump. Immediately after infusion and every 5 minutes, 5 μL of blood was collected for measurement of HbCO. […] In particular, after 5 minutes of return to normal air, the HbCO levels dropped by an average of 32.8% in the group that received rNgb versus 13.3% in the group that received PBS (FIG. 1).

The subject of a further series is HbCO. The series is described as follows: HbCO removal in CO poisoned mice (1500 ppm CO, moderate CO poisoning model). The series is classed as in vivo. Conditions: after 5 minutes of return to normal air, 250 μL of 8-12 mM infused. The procedure:
FIG. 1 is a graph showing the in vivo binding of CO from hemoglobin by recombinant neuroglobin in a mouse model for moderate CO poisoning.
as §1

On to `O=S([O-])S(=O)[O-].[Na+].[Na+]` [Dithionite, sodium dithionite], for which, in series [1], the “LD50 dose in mice” value is on record as “about 62.5 mg”. Further, the LD50 in series [2] is on record as 2500 mg/kg body weight. Moreover, in series [3], the “predicted human LD50” value is 0.5 g/kg.

B1: rNgb: recombinant neuroglobin, another type of CO scavenging globin protein (protein, UniProt Q9NPG2 1-151, looked up)
Neuroglobin: MERPEPELIRQSWRAVSRSPLEHGTVLFARLFALEPDLLPLFQYNCRQFSSPEDCLSSPEFLDHIRKVMLVIDAAVTNVEDLSSLEEYLASLGRKHRAVGVKLSSFSTVGESLLYMLEKCLGPAFTPATRAAWSQLYGAVVQAMSRGWDGE
Regarding B1, the “rNgb in urinary bladder” value in series [4] is on record as “millimolar concentrations”. Also, the “drop of HbCO levels” value with HbCO turned out to be 32.8%.
